Assay results reported in US20240293507A1, “Methods for Enhancing Immune Checkpoint Inhibitor Therapy” (The University of Southern California, priority 2021, published 2024).
No end group written: not given here.

Experiments:
[1] = system: MC38 mouse colon adenocarcinoma cells; assay: MC38 colon adenocarcinoma challenge, survival and rechallenge (FIG. 6-8); assay type: in vivo, mice; conditions: peptide in combination with anti-PD-1 monoclonal antibody
From the text: Enhancement was also found of the efficacy of anti-PD-1 therapy in a mouse colon cancer model by coadministration of a cyclic peptide as described herein. A typical protocol for identifying or characterizing effective analogs of naturally occurring cyclic peptides or effective naturally occurring cyclic peptides is shown in FIG. 6.
Mice were challenged with MC38 mouse colon adenocarcinoma cells and treated with peptide 1 (SEQ ID NO. 1), peptide 2 (SEQ ID NO. 2), or peptide 3 (SEQ ID NO. 3) alone, peptide 1 (SEQ ID NO. 1), peptide 2 (SEQ ID NO. 2), or peptide 3 (SEQ ID NO. 3) in combination with an anti-PD-1 monoclonal antibody, or with the anti-PD-1 monoclonal antibody alone.
Such combination therapy provided an effect that exceeds the summation of effects provided by anti-PD1 or the cyclic peptide as monotherapies. […] Use of cyclic peptides in combination anti-PD-1 ICI also effectively immunized mice to rechallenge with MC38 colon cancer cells. As shown in the upper panel of FIG. 8, MC38 cells formed tumors in naïve control mice.

[2] = system: myeloid-derived suppressor cells (MDSCs) in MC38 colon adenocarcinoma tumors; assay: MDSC infiltration into tumor microenvironment, MC38 tumors, FACS; assay type: in vivo, C57BL/6 mice; conditions: 4 doses cyclic peptide 0.1 mg/kg alone; tumors harvested day 13
Method: C57BL/6 mice were implanted subcutaneously with 5×10^6 MC38 colon adenocarcinoma cells, and subsequently treated with 4 doses of the indicated cyclic peptide (0.1 mg/kg), 4 doses of the indicated a cyclic peptide with 3 doses of an anti-PD-1 monoclonal antibody (1 mg/kg), or saline (control). Tumors were harvested at day 13 and the percent of myeloid-derived suppressor cells (MDSCs) was quantified by FACS.

“peptide 3: cyclic peptide, θ-defensin analog, sequence CICRRRFCLCRRGA (not fully specified (bridges); also: cyclic, kind not given here)” was tested, and the survival [1] was “potentiated the effect of the anti-PD-1 monoclonal antibody” and the “percentage of MDSCs within the tumor microenvironment” value [2] was “significant activity in reducing the percentage of MDSCs”.
